Test results reported in ChEMBL document CHEMBL1129835, “Selective cytotoxicity of certain 9-substituted ellipticines for leukemia cells in a variety of leukemia cell cultures” (1997).

What was measured:
Type in all cases: functional
Conditions in all cases: Homo sapiens
[1] = system: U-251; test: The compound was evaluated for cytotoxicity against U251 CNS cancer cell line
[2] = system: CAKI-1; test: The compound was evaluated for cytotoxicity against CAKI-1 renal cancer cell line
[3] = system: NCI-H322M; test: The compound was evaluated for cytotoxicity against NCI-H322M non-small cell lung cancer cell line
[4] = system: IGROV-1; test: The compound was evaluated for cytotoxicity against IGROV1 ovarian cancer cell line
[5] = system: PC-3; test: The compound was evaluated for cytotoxicity against PC-3 prostate cancer cell line
[6] = system: HCT-116; test: The compound was evaluated for cytotoxicity against HCT116 colon cancer cell line
[7] = system: MOLT-4; test: The compound was evaluated for cytotoxicity against MOLT-4 leukemia cell line
[8] = system: LOX IMVI; test: The compound was evaluated for cytotoxicity against LOX-IMVI melanoma cell line
[9] = system: MDA-N; test: The compound was evaluated for cytotoxicity against MDA-N breast cancer cell line

SMILES | GI50 [1] [nM] | GI50 [2] [nM] | GI50 [3] [nM] | GI50 [4] [nM] | GI50 [5] [nM] | GI50 [6] [nM] | GI50 [7] [nM] | GI50 [8] [nM] | GI50 [9] [nM]
CCN(CC)CCNCc1ccc2[nH]c3c(C)c4ccncc4c(C)c3c2c1 | 180 | 160 | 60 | 40 | 210 | 50 | 10 | 120 | 110
Cc1c2ccncc2c(C)c2c1[nH]c1ccc(CN(CCO)CCO)cc12 | 260 | 250 | 220 | 120 | 340 | 100 | 20 | 150 | 370
